{"source": "patent US20150141485A1", "about": "“PROGNOSIS AND TREATMENT OF LUNG CANCER USING miRNA-135b” (NATIONAL CHENG KUNG UNIVERSITY, priority 2013, published 2015)", "key": {"CL1-5-F4 cells [1]": {"system": "CL1-5-F4 cells", "assay": "Migration assay (culture inserts)", "assay_type": "cell-based, human", "conditions": "CL1-5-F4 cells transfected 48 hours, vs scramble (NC)", "procedure": "(§1) CL1-5-F4 and Hop-62 cells were transfected with scramble (NC) of miR-135b-specific antagomir (Antago-135b) for 48 hours and the subjected to migration assays (FIG. 2d) and invasion assays (FIG. 2e) as described above. *P<0.05;**P<0.005 by Student's t-test.\n(§2) For the migration assay, culture inserts (Ibidi, Munich, Germany) were inserted into 60-mm dishes. Next, the cell suspensions were seeded in each culture insert well at a concentration of 2.5×10^4 (CL1-0) or 3×10^4 (CL1-5-F4 and UACC-257) cells/mL. The culture inserts were removed to leave a gap of approximately 500 μm."}, "Hop-62 cells [2]": {"system": "Hop-62 cells", "assay": "Migration assay (culture inserts)", "assay_type": "cell-based", "conditions": "Hop-62 cells transfected 48 hours, vs scramble (NC)", "procedure": "as §1, §2"}, "Hop-62 cells [3]": {"system": "Hop-62 cells", "assay": "Transwell invasion assay", "assay_type": "cell-based", "conditions": "Hop-62 cells transfected 48 hours, vs scramble (NC)", "procedure": "as §1\nTranswell chambers ([…], BD Falcon, Franklin Lakes, N.J.) were coated with the appropriate amount of Matrigel (BD Biosciences, San Jose, Calif.). Next, 2.5×10^4 cells were suspended in NuSerum-containing media (Gibco BRL, Grand Island N.Y., USA), seeded in the chamber and cultured, Cells that invaded the chamber from top to bottom were fixed with methanol and stained with a solution of propidium iodine (Sigma-Aldrich, St. Louis, Mo.). The propidiumiodine-positive signal was quantified using Analytical Imaging Station software package. Each sample was assayed in triplicate."}, "CL1-5 cells": {"system": "CL1-5 cells", "assay": "Orthotopic lung cancer model", "assay_type": "in vivo, nude mice", "procedure": "CL1-5 cells were implanted orthotopically into the left lungs of 6-weeks-old nude mice (n=9). A series of scramble antagomir (NC) or miR-135b antagomir (Antago-135b) intravenous injections were performed every 2 days after tumor cell implantation. Lungs were harvested 25 days after the cells were implanted. […] Arrows indicate the visible nodules. […] Data are expressed as mean±s.e.m. *P<0.05 by Student's t-test.\nMice bearing CL1-5 cells were subjected to scramble antagomir (NC) or miR-135b antagomir (Antago-135b) treatment. Animal survival was determine using Kaplan-Meier survival analysis and the log-rank test for data obtained 25 days after the cancer cells were orthotopically injected (n=9).\nNext, the effects of miR-135b inhibition on tumor growth and metastasis in an orthotopic lung cancer model were checked. Seven intravenous injections of miR-135b antagomir were given 4 days after CL1-5 implantation."}, "CL1-5-F4 cells [4]": {"system": "CL1-5-F4 cells", "assay": "Late-stage metastasis model, intravenous injection of tumor cells", "assay_type": "in vivo, mice", "conditions": "3 months after i.v. cell injection, tail vein treatments, P=0.018", "from_the_text": "CL1-5 cells with scramble antagomir (NC) or miR-135 antagomir (Antago-135b) were intravenously injected to assess the effect of antagomir on late-stage metastasis (n=9). Representative average of visible metastatic lung nodules and H&E staining (right). Data are expressed as the mean±s.e.m. *P<0.05 by Student's t-test.\nAnimals were housed in a specific-pathgen-free environment in the animal facility of the Institute of Biomedical Sciences, Academia Sinica. All experimental procedures were in compliance with the Academia Sinica IACUC and Council of Agriculture Guidebook for the Care and Use of Laboratory Animals. For intravenous injections of the tumor cells, 1×10^6 cells were suspended in 0.1 mL of phosphate-buffered saline (PBS) and injected into lateral tail vein of SCID mice (10 mice per group). […] For the subcutaneous tumor assay, 1×10^6 CL1-0 cells or 2×10^5 H441 cells were subcutaneously injected in 0.1 mL of PBS into male nude mice (n=8 per group) and allowed to grow for 35 days to reach a volume of 50-200 mm^3 Control antagomir (Scramble) or anti-miR-135b antagomir (antago-135) was intravenously injected at a concentration of 10 μM in 0.1 mL of PBS 4 days after the cells were implanted. […]\nThe impact of the antagomir during the late stages in metastasis was determined, such as extravasation and colonization. […]"}, "LZTS1 3′-UTR": {"system": "LZTS1 3′-UTR", "assay": "Luciferase reporter assay, LZTS1 3'-UTR", "assay_type": "cell-based", "conditions": "CL1-0 cells co-transfected with miR-135b, vs Scramble", "procedure": "CL1-0 cells were co-transfected with miR-135b, wild-type LZTS1 3′-UTR along with Scramble or miR-135-specific antagomir (Antago-135b). Luciferase activity was measured and is presented as described in FIG. 5a. Mean±s.d. is shown, *P<0.05; **P<0.005 by Student's t-test.\nOne day before transfection, CL1-0 cells were seeded at a concentration of 2.5×10^4 per well. Next, the pClneo vector or miR-135b plasmid was co-transfected with the pGL3-target gene-3′UTR. The Renilla lunciferase plasmid (phRL-TK, Promega, Madison, Wis.) was co-transfected as transfection control. Cells were lysed 36 hours after transfection, and luciferase activity was measured using a Dual-Luciferase system (Promega, Madison, Wis.) according to the manufacture's protocol."}, "CL1-5-F4 cells [5]": {"system": "CL1-5-F4 cells", "assay": "Western blot of endogenous LZTS1", "assay_type": "cell-based, human", "conditions": "100 nM, 48 hours", "procedure": "CL1-5-F4 and UACC-257 cells were administrated with 100 nM of negative control (NC) or antago-135b for 48 hours. Total cell lysates were harvested for western blot analysis."}, "CL1-5-F4 cells [6]": {"system": "CL1-5-F4 cells", "assay": "Western blot of Hippo pathway proteins", "assay_type": "cell-based, human", "conditions": "72 hours", "procedure": "(§3) Western bolt analysis of the Hippo pathway proteins in CL1-5-F4 and CL141 cells incubated with Scramble (NC) of Antago-135b for 72 hours. Quantitative RT-PCR was used to assay miR-135b knockdown activity."}, "CL141 cells": {"system": "CL141 cells", "assay": "Western blot of Hippo pathway proteins", "assay_type": "cell-based", "conditions": "72 hours", "procedure": "as §3"}, "[7]": {"conditions": "seven i.v. injections, 4 days after CL1-5 implantation, vs control lungs"}}, "note": "Oligonucleotides are written 5' to 3', each unit as a sugar letter and its base; * is a phosphorothioate linkage, no mark a phosphodiester; rarer units and linkages stand in square brackets, end groups in braces. Plain capitals give the bases only. {Chol} = cholesterol; m = 2'-O-methyl"}
{"substance": "5′mU(*)mC(*)mAmCmAmUmAmG-mGmAmAmUmGmAmAmAmAmGmCmC(*)mA(*)mU(*)mA(*)(3′-Ch1)3′ (SEQ ID NO:8) (mU*mC*mAmCmAmUmAmGmGmAmAmUmGmAmAmAmAmGmCmC*mA*mU*mA*{Chol}) [miR-135b antagomir]", "values": [{"measurement": "migratory ability", "setting": "CL1-5-F4 cells [1]", "result": "inhibited these changes"}, {"measurement": "migratory ability", "setting": "Hop-62 cells [2]", "result": "inhibited these changes"}, {"measurement": "invasive ability", "setting": "Hop-62 cells [3]", "result": "inhibited these changes"}, {"measurement": "orthotopic tumor growth", "setting": "CL1-5 cells; [7]", "result": "inhibited orthotopic tumor growth"}, {"measurement": "volume of lung metastases", "setting": "CL1-5 cells; [7]", "result": "decrease the volume of lung metastases"}, {"measurement": "survival rates", "setting": "CL1-5 cells; systemic delivery in orthotopic tumor-bearing mice", "result": "increased survival rates"}, {"measurement": "metastatic lung nodules vs control group", "setting": "CL1-5-F4 cells [4]", "result": "eight-fold fewer"}, {"measurement": "suppressive effects of miR-135b on LZTS1 3′-UTR-carrying luciferase", "setting": "LZTS1 3′-UTR", "result": "significantly reduced"}, {"measurement": "LZTS1 expression", "setting": "CL1-5-F4 cells [5]", "result": "significantly increased"}, {"measurement": "LATS2, β-TrCP and NDR2 expressions", "setting": "CL1-5-F4 cells [6]", "result": "induced"}, {"measurement": "TAZ protein expression", "setting": "CL1-5-F4 cells [6]", "result": "reduced"}, {"measurement": "LATS2, β-TrCP and NDR2 expressions", "setting": "CL141 cells", "result": "induced"}, {"measurement": "TAZ protein expression", "setting": "CL141 cells", "result": "reduced"}]}
